Results: US20230140290A1, “SALICYLAMIDE DERIVATIVES AND RELATED METHODS OF MAKING” (THE BOARD OF REGENTS OF THE UNIVERSITY OF TEXAS SY, priority 2020, published 2023)
Like-named read-outs stand apart in the source and are kept apart here.

Columns and labels:
HAdV5-GFP [1] = assay: Plaque assay (inhibition of HAdV plaque formation); format: cell-based, HAdV-5; conditions: for inhibition at 10 µM: read-out: Plaque Assay (%) Inhibition (10 μM); for Selectivity index (SI): ratio of CC50 to IC50 in plaque assay
Method in brief: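 Compounds were present in the post-infection mixture at 10 μM, or at 10 to 0.3 μM for dose-response. Infection used low MOI HAdV5-GFP (0.06 vp/cell) on 80-90% confluent cells, 2 h rocking at 37° C, then a PBS wash.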

HAdV5-GFP [2] = assay: Entry assay (HAdV5-mediated GFP expression); format: cell-based, HAdV-5; conditions: for (%) Inhibition Entry Assay (50 μM): 48 h; for inhibition at 50 µM: A549, 48 h, read-out: (%) Inhibition Entry Assay (50 μM)
Experimental: Entry Assay. The anti-HAdV activity was measured in an entry assay using human A549 epithelial cells (3×10^5 cells/well in coming black wall, clear bottom 96-well plates) infected with HAdV5-GFP (2000 vp/cell) in the presence 50 μM of the candidates and in a dose-response assay. A standard infection curve was generated in parallel by infecting cells in the absence of compounds using serial 2-fold dilutions of virus. All reactions were done in triplicate. Cells, virus, and drugs were incubated for 48 h at 37° C. and 5% CO2.

[3] = Maximum tolerated dose (MTD); conditions: immunosuppressed Syrian hamster, intraperitoneal
Experimental: Maximum tolerated dose (MTD). […] Before dosing, compounds were diluted in 10% DMSO, 10% Cremophor EL and 80% sodium chloride physiological solution. […] At day 14 animals were sacrificed with a lethal dose of thiopental. All inoculations were done via intraperitoneal.

HAdV5 = assay: HAdV-mediated endosome disruption (α-sarcin co-delivery assay); format: cell-based, HAdV-5; conditions: FIG. 11; A549, 5 μM, independent of virus concentration
HAdV5-GFP [4] = conditions: read-out: IC50, inhibition of HAdV infection; Marrugal-Lorenzo et al. 2019; cited from earlier work
HAdV5-GFP [5] = assay: Time of addition assay; format: cell-based, HAdV-5
Experimental: (§1) Time of Addition Curve Study. […] Parallel samples of HAdV-5 were incubated with or without the selected derivatives on ice for 1 h. […] The derivatives were added at the indicated time points before or during this incubation. After a total of 2 h at 37° C., cells were incubated for an additional 48 h at 37° C. and 5% CO2 before being analyzed for GFP expression using the Typhoon 9410 imager (GE Healthcare Life Sciences) as above.
as §1, with “Assay.” for “Curve Study.”
as §1, with “Assay.” for “Curve Study.”, “compounds” for “derivatives”, “Compounds 153 and 161” for “The derivatives”

wild-type HAdV5 [6] = assay: Nuclear-associated HAdV genomes (real-time PCR); format: cell-based, HAdV-5
Experimental: (§2) Nuclear-Associated HAdV Genomes. The nuclear delivery of HAdV genomes was assessed by real-time PCR following nuclear isolation from infected cells. […] Forty-five minutes after infection, A549 cells were trypsinized and collected and then washed twice with PBS. Then, cytoplasmic and nuclear fractions were separated using a hypotonic buffer solution and NP-40 detergent. The cell pellet was resuspended in 500 μL of 1×hypotonic buffer (20 mM Tris-HCl pH 7.4, 10 mM NaCl, 3 mM MgCl2) and incubated for 15 min at 4° C. Then, 25 μL of NP-40 was added and the samples were vortexed. The homogenates were centrifuged for 10 min at 835 g at 4° C. Following the removal of the cytoplasmic fraction (supernatant), HAdV DNA was isolated from the nuclear fraction (pellet) and from the cytoplasmic fraction using the QIAamp DNA Mini Kit (QIAGEN, Valencia, Calif.).
as §2, with “E.Z.N.A.® Tissue” for “QIAamp”, “DNA” for “DNA Mini”, “(Omega Bio-tek, Norcross, Ga.).” for “(QIAGEN, Valencia, Calif.).”

wild-type HAdV5 [7] = assay: HAdV DNA quantification by real-time PCR (DNA replication); format: cell-based, HAdV-5; conditions: 24 h
Experimental: DNA Quantification by Real-Time PCR. […] Infected cells were incubated 24 h at 37° C. in 500 μL of complete DMEM containing 25 μM of either compounds or the same volume of DMSO (positive control). All samples were done in duplicate. After 24 h of incubation at 37° C., DNA was purified from the cell lysate with the QIAamp DNA Mini Kit (QIAGEN, Valencia, Calif.) following the manufacturer's instructions. TaqMan primers and probes for a common region of the HAdV5 were designed with the GenScript Real-Time PCR (TaqMan) Primer Design software (GenScript). […] Real-time PCR mixtures consisted of 9.5 μL of the purified DNA, AQ1 and AQ2 at a concentration of 200 nM each and Probe at a concentration of 50 nM in a total volume of 25 μL. The PCR cycling protocol was 95° C. for 3 min followed by 40 cycles of 95° C. for 10 s and 60° C. for 30 s. Human glyceraldehyde-3-phosphate dehydrogenase (GAPDH) gene was used as internal control. Oligonucleotides sequences for GAPDH and conditions were those previously reported by Henke-Gendo et al. (2012).
For quantification, gene fragments from hexon, and GAPDH were cloned into the pGEM-T Easy vector (Promega) and known concentrations of template were used to generate a standard curve in parallel for each experiment. All assays were performed in thermal cycler LightCycler® 96 System (Roche).
(§3) HAdV DNA Quantification by Real-Time PCR. […] All samples were done in duplicate. After 24 h of incubation at 37° C., DNA was purified from the cell lysate with the E.Z.N.A.® Tissue DNA Kit (Omega Bio-tek, Norcross, Ga.) following the manufacturer's instructions. TaqMan primers and probes for a common region of the HAdV5 were designed with the GenScript Real-Time PCR (TaqMan) Primer Design software (GenScript). […] Real-time PCR mixtures consisted of 9.5 μL of the purified DNA, AQ1 and AQ2 at a concentration of 200 nM each and Probe at a concentration of 50 nM in a total volume of 25 μL. The PCR cycling protocol was 95° C. for 3 min followed by 40 cycles of 95° C. for 10 s and 60° C. for 30 s. Human glyceraldehyde-3-phosphate dehydrogenase (GAPDH) gene was used as internal control. Oligonucleotides sequences for GAPDH and conditions were those previously reported by Henke-Gendo et al. (2012).
as §3, with “DNA” for “HAdV DNA”

[8] = Cytotoxicity assay (AlamarBlue); conditions: human, A549 cells
Experimental: (§4) Cytotoxicity Assay. The cytotoxicity of the compounds was analyzed by commercial kit AlamarBlue® (Invitrogen, Ref. DAL1025). A549 cells at a density of 5×10^3 cells per well in 96-well plates were seeded. […] Cells were then incubated at 37° C. for 48 h following the kit protocol. The cytotoxic concentration 50 (CC50) value was obtained using the statistical package GraphPad Prism. This assay was performed in duplicate.

A549 cells = assay: Cytotoxicity assay (AlamarBlue); conditions: read-out: CC50 (μM), cytotoxic concentration 50%; A549 cell line, 48 h
Experimental: as §4

HCMV = HCMV DNA quantification by real-time PCR; format: cell-based, human cytomegalovirus; conditions: HFF cells, 72 h, 10-fold plaque IC50 (niclosamide 5 μM)
Experimental: HCMV DNA Quantification by Real-Time PCR. […] Then, cells were incubated for 72 h at 37° C. and 5% CO2 and HCMV DNA was purified from the cell lysate using the QIAamp DNA Mini Kit (Qiagen, Valencia, Calif.) following the manufacturer's instructions. Real-time PCR primers, mixtures and protocols were the same as previously reported (Sanchez-Cespedes et al., J. Med. Chem. 2016, 59, 5432-5448).

[9] = read-out: Plaque Assay IC50 (μM), HAdV5-GFP, low MOI, 293β5 cell line
[10] = A549, read-out: IC50 Entry Assay (μM), HAdV5-GFP, high MOI, A549 cell line
[11] = FIG. 5A, 45 min post-infection, 10-fold plaque IC50

SMILES	inhibition at 10 µM (HAdV5-GFP [1])	IC50 (HAdV5-GFP [1]; [9])	inhibition at 50 µM (HAdV5-GFP [2])	IC50 (HAdV5-GFP [2]; [10])	Selectivity index (SI) (HAdV5-GFP [1])	amount of nuclear-associated HAdV genomes versus DMSO (wild-type HAdV5 [6]; [11])	further results
O=C(Nc1ccc([N+](=O)[O-])cc1Cl)c1cc(Cl)ccc1O [Compound 6, niclosamide, reference compound]							Plaque Assay (%) Inhibition (10 μM) (HAdV5-GFP [1]; HAdV5-GFP, 10 μM, low MOI, 293β5 cell line): 100 ± 0%; IC50 (HAdV5-GFP [1]; HAdV5-GFP, low MOI, 293β5 cell line, read-out: Plaque Assay IC50): 0.6 µM; (%) Inhibition Entry Assay (50 μM) (HAdV5-GFP [2]; HAdV5-GFP, high MOI, A549 cell line): 100.0 ± 0.0%; (%) Inhibition Entry Assay (50 μM) (HAdV5-GFP [2]; HAdV5-GFP, high MOI, A549 cell line, listed as 73, 50 µM): 100 ± 0%; IC50 (HAdV5-GFP [2]; HAdV5-GFP, high MOI, A549 cell line, read-out: IC50 Entry Assay): 1.22 ± 0.44 µM; doses showing high toxicity [3]: ≥ 5 mg/kg; rate of HPG incorporation compared to a control without α-sarcin (HAdV5): under 50%; IC50 (HAdV5-GFP [4]): 600 nM
O=C(Nc1ccc(C(F)(F)F)cc1Cl)c1cc(Cl)ccc1O [Compound 14, 5-Chloro-N-(2-chloro-4-(trifluoromethyl)phenyl)-2-hydroxybenzamide]	100%	0.08 µM	100%	1.67 ± 0.25 µM			loss of inhibition when added between 5 and 10 min p.i. (HAdV5-GFP [5]; FIG. 2, 10 μM): 20%; amount of nuclear-associated HAdV genomes versus DMSO (wild-type HAdV5 [6]; FIG. 3, 45 min post infection, concentrations by CC50 (2-50 μM)): partially inhibited; inhibition of HAdV-5 DNA replication (qPCR) (wild-type HAdV5 [7]; FIG. 4, concentrations by CC50 (2-50 μM)): significant (p≤0.0001) inhibitory activity
CC(C)(C)OC(=O)N1CCC(CNc2ccc(NC(=O)c3cc(Cl)ccc3O)c(Cl)c2)CC1 [Compound 126, tert-Butyl 4-(((3-chloro-4-(5-chloro-2-hydroxybenzamido)phenyl)amino)methyl)piperidine-1-carboxylate]	97.8 ± 1.4%	0.93 µM	67.6%	< 3.13 µM	102.2	partially inhibited	CC50 at 48 h [8]: 95000 nM; anti-HAdV activity when added between 10 and 20 min p.i. (HAdV5-GFP [5]; FIG. 7, 10-fold plaque IC50): loses its anti-HAdV activity
O=C(Nc1ccc(NC2CCCC2)cc1Cl)c1cc(Cl)ccc1O [Compound 78, 5-Chloro-N-(2-chloro-4-(cyclopentylamino)phenyl)-2-hydroxybenzamide]	100%	0.5 ± 0.1 µM	27.5 ± 3.8%	> 50 µM	185.8	no significant differences	CC50 (A549 cells): 92.9 ± 7.1 µM; inhibition of HAdV-5 DNA replication (qPCR) (wild-type HAdV5 [7]; FIG. 6A, 10-fold plaque IC50): moderate inhibition; decrease of total HCMV DNA compared to the DMSO control (HCMV): no significant inhibition
